Like-named read-outs stand apart in the source and are kept apart here.
How the values were obtained:
[1] = tested on: human epithelial HeLa cells; assay: HeLa cytotoxicity assay (CellTiter-Glo); format: cell-based; details: cytotoxicity in stimulated HeLa cells, recorded as pCC50
Method: (§1) Compounds of the present invention were tested via high-throughput cellular assays utilizing detection of kynurenine via mass spectrometry and cytotoxicity as end-points. […] Compounds with IDO1 inhibitory properties decreased the amount of kynurenine produced by the cells via the tryptophan catabolic pathway. Cellular toxicity due to the effect of compound treatment was measured using CellTiter-Glo® reagent (CTG) (Promega Corporation, Madison, Wis.), which is based on luminescent detection of ATP, an indicator of metabolically active cells.
(§2) In preparation for the assays, test compounds were serially diluted 3-fold in DMSO from a typical top concentration of 1 mM or 5 mM and plated at 0.5 μL in 384-well, polystyrene, clear bottom, tissue culture treated plates with lids (Greiner Bio-One, Kremsmünster, Austria) to generate 11-point dose response curves. Low control wells (0% kynurenine or 100% cytotoxicity) contained either 0.5 μL of DMSO in the presence of unstimulated (−IFN-γ) HeLa cells for the mass spectrometry assay or 0.5 μL of DMSO in the absence of cells for the cytotoxicity assay, and high control wells (100% kynurenine or 0% cytotoxicity) contained 0.5 μL of DMSO in the presence of stimulated (+IFN-γ) HeLa cells for both the mass spectrometry and cytotoxicity assays.
(§3) Frozen stocks of HeLa cells were washed and recovered in DMEM high glucose medium with HEPES (Thermo Fisher Scientific, Inc., Waltham, Mass.) supplemented with 10% v/v certified fetal bovine serum (FBS) (Thermo Fisher Scientific, Inc., Waltham, Mass.), and 1× penicillin-streptomycin antibiotic solution (Thermo Fisher Scientific, Inc., Waltham, Mass.). The cells were diluted to 100,000 cells/mL in the supplemented DMEM medium. 50 μL of either the cell suspension, for the mass spectrometry assay, or medium alone, for the cytotoxicity assay, were added to the low control wells, on the previously prepared 384-well compound plates, resulting in 5,000 cells/well or 0 cells/well respectively. IFN-γ was added to the remaining cell suspension at a final concentration of 10 nM, and 50 μL of the stimulated cells were added to all remaining wells on the 384-well compound plates. The plates, with lids, were then placed in a 37° C., 5% CO2 humidified incubator for 2 days.
(§4) Following incubation, the 384-well plates were removed from the incubator and allowed to equilibrate to room temperature for 30 minutes. For the cytotoxicity assay, CellTiter-Glo® was prepared according to the manufacturer's instructions, and 10 μL were added to each plate well. After a twenty minute incubation at room temperature, luminescence was read on an EnVision® Multilabel Reader (PerkinElmer Inc., Waltham, Mass.). For the mass spectrometry assay, 10 μL of supernatant from each well of the compound-treated plates were added to 40 μL of acetonitrile, containing 10 μM of an internal standard for normalization, in 384-well, polypropylene, V-bottom plates (Greiner Bio-One, Kremsmünster, Austria) to extract the organic analytes. Following centrifugation at 2000 rpm for 10 minutes, 10 μL from each well of the acetonitrile extraction plates were added to 90 μL of sterile, distilled H2O in 384-well, polypropylene, V-bottom plates for analysis of kynurenine and the internal standard on the RapidFire 300 (Agilent Technologies, Santa Clara, Calif.) and 4000 QTRAP MS (SCIEX, Framingham, Mass.). MS data were integrated using Agilent Technologies' RapidFire Integrator software, and data were normalized for analysis as a ratio of kynurenine to the internal standard.

[2] = biological target: indoleamine 2, 3-dioxygenase (IDO1) (Homo sapiens, UniProt P14902); assay: IDO1 HeLa RapidFire MS Assay (kynurenine by mass spectrometry); format: cell-based; details: HeLa cells stimulated with IFN-γ, 2 days; recorded as pIC50; read-out: IDO1 HeLa PXC50 (converted)
Method: IDO1 HeLa RapidFire MS Assay
as §1, §2, §3, §4

[3] = tested on: human peripheral blood mononuclear cells (PBMC); assay: PBMC cytotoxicity assay (CellTiter-Glo); format: cell-based; details: cytotoxicity in stimulated PBMC, recorded as pCC50
[4] = biological target: T1, ePL tagged IDO1 (Homo sapiens, UniProt P14902); assay: CETSA (Cellular Thermal Shifting assay); format: binding; details: Hela cells, 3 hours at 37° C., heated at 53° C. for 3 min
T1 construct: expressed in transfected cells; host or cells: HeLa cells transduced with BacMam virus
Method: Cellular Thermal Shifting assays were used to directly monitor the ligand binding to target proteins in cells. Hela cells were transduced with BacMam virus expressing ePL tagged IDO1 overnight. The cells were then plated over the compounds for 3 hours at 37° C. in cell culture medium containing 1% FBS. The plates were then sealed and heated at 53° C. for 3 min. InCell Hunter reagents were added and luminescence was read in 90 min.

[5] = tested on: PAN02 pancreatic cells; details: cited from earlier work
[6] = first value, read-out: pXC50_1 (converted)
[7] = second value, read-out: pXC50_2 (converted)

T1 sequence (P14902 whole entry): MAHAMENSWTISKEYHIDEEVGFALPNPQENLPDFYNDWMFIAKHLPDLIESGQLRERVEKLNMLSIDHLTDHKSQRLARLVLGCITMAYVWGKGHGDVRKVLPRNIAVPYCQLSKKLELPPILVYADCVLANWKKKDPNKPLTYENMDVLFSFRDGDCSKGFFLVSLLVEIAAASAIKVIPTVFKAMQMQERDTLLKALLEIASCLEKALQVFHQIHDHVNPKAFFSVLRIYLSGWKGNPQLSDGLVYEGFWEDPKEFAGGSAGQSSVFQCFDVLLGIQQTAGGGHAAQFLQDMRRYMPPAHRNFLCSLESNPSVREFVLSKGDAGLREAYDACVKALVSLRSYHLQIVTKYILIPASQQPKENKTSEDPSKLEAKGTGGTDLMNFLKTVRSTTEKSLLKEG
indoleamine 2, 3-dioxygenase (IDO1), sequence (P14902 whole entry): as above

Row | Compound | HELA_IDO1_TOX_PXC50 [1] | IC50 [2] [nM] | PBMC_TOX PXC50 [3] | EC50 [4, 6] [nM] | EC50 [4, 7] [nM] | effect against the same tumor ([5]; immune-deficient mice) | inhibition of tumor growth ([5]; immunocompetent mice, orally dosed)
1 | CC(C)CN(CC(C)C)c1ncc(C(C)CC(=O)O)cc1Nc1nc(C(F)(F)F)ns1 (stereo not shown) [Example 1, 3-(6-(diisobutylamino)-5-((3-(trifluoromethyl)-1,2,4-thiadiazol-5-yl)amino)pyridin-3-yl)butanoic acid] | <5 | 10 | <5.0 |  |  |  | 
2 | CC(C)CN(c1ncc(C(C)CC(=O)O)cc1Nc1ccc(C(F)(F)F)cn1)C1CCOCC1 (stereo not shown) [Example 2, 3-(6-(isobutyl(tetrahydro-2H-pyran-4-yl)amino)-5-((5-(trifluoromethyl)pyridin-2-yl)amino)pyridin-3-yl)butanoic acid] | <5 | 10 | <5.0 |  |  |  | 
3 | CC(C)CN(c1ncc([C@H](C)CC(=O)O)cc1Nc1nc(C(F)(F)F)ns1)C1CCOCC1 [Example 3, (R)-3-(6-(isobutyl(tetrahydro-2H-pyran-4-yl)amino)-5-((3-(trifluoromethyl)-1,2,4-thiadiazol-5-yl)amino)pyridin-3-yl)butanoic acid] | <5 | 10 | <5.0 | 162 | 186 |  | 
4 | CC(C)CN(c1ncc([C@H](C)CC(=O)O)cc1Nc1ccc(Cl)nc1)C1CCOCC1 [Example 4, (R)-3-(5-((6-chloropyridin-3-yl)amino)-6-(isobutyl(tetrahydro-2H-pyran-4-yl)amino)pyridin-3-yl)butanoic acid] | <5 | 10 | <5.0 |  |  |  | 
5 | CC(C)CN(c1ncc([C@H](C)CC(=O)O)cc1Nc1cnc(Cl)nc1)C1CCOCC1 [Example 5, (R)-3-(5-((2-chloropyrimidin-5-yl)amino)-6-(isobutyl(tetrahydro-2H-pyran-4-yl)amino)pyridin-3-yl)butanoic acid] | <5 | 15.8 | <5.0 |  |  |  | 
6 | CC(C)CN(c1ncc([C@H](C)CC(=O)O)cc1Nc1ccc(Cl)c(F)n1)C1CCOCC1 [Example 7, (R)-3-(5-((5-chloro-6-fluoropyridin-2-yl)amino)-6-(isobutyl(tetrahydro-2H-pyran-4-yl)amino)pyridin-3-yl)butanoic acid] | <5 | 12.6 | <5.0 |  |  |  | 
7 | CC(C)CN(c1ncc([C@H](C)CC(=O)O)cc1Nc1nc(C(F)(F)F)ns1)C1CC(F)(F)C1 [Example 20, (R)-3-(6-((3,3-difluorocyclobutyl)(isobutyl)amino)-5-((3-(trifluoromethyl)-1,2,4-thiadiazol-5-yl)amino)pyridin-3-yl)butanoic acid] | <5 | 12.6 | <5.0 |  |  |  | 
8 | CC(C)CN(c1ncc(-c2ccccc2C(=O)O)cc1Nc1nc(C(F)(F)F)ns1)C1CCOCC1 [Example 29, 2-(6-(isobutyl(tetrahydro-2H-pyran-4-yl)amino)-5-((3-(trifluoromethyl)-1,2,4-thiadiazol-5-yl)amino)pyridin-3-yl)benzoic acid] | <5 | 15.8 | <5.0 |  |  |  | 
9 | CC(C)CN(c1ncc([C@H](C)CC(=O)O)cc1Nc1nc(Cl)ns1)C1CCC(F)(F)CC1 [Example 30, (R)-3-(5-((3-chloro-1,2,4-thiadiazol-5-yl)amino)-6-((4,4-difluorocyclohexyl)(isobutyl)amino)pyridin-3-yl)butanoic acid] | <5 | 39.8 | <5.0 |  |  |  | 
10 | CC(C)CN(c1ncc(C(C)CC(=O)O)cc1Nc1nc(C(F)(F)F)ns1)C1CCOCC1 (stereo not shown) [Example 31, 3-{6-[(2-methylpropyl)(oxan-4-yl)amino]-5-{[3-(trifluoromethyl)-1,2,4-thiadiazol-5-yl]amino}pyridin-3-yl}butanoic acid] | <5 | 5.01 | <5.0 |  |  |  | 
11 | CC(C)CN(CC(C)C)c1ncc(C(C)CC(=O)O)cc1Nc1nc(Cl)ns1 (stereo not shown) [Example 32, 3-{6-[bis(2-methylpropyl)amino]-5-[(3-chloro-1,2,4-thiadiazol-5-yl)amino]pyridin-3-yl}butanoic acid] | <5 | 631 | <5.0 |  |  |  | 
12 | CC(C)CN(c1ncc(C(C)CC(=O)O)cc1Nc1ccc(C#N)cn1)C1CCOCC1 (stereo not shown) [Example 33, 3-{5-[(5-cyanopyridin-2-yl)amino]-6-[(2-methylpropyl)(oxan-4-yl)amino]pyridin-3-yl}butanoic acid] | <5 | 20 | <5.0 |  |  |  | 
13 | CC(C)CN(c1ncc(C(C)CC(=O)O)cc1Nc1nc(Cl)ns1)C1CCOCC1 (stereo not shown) [Example 34, 3-{5-[(3-chloro-1,2,4-thiadiazol-5-yl)amino]-6-[(2-methylpropyl)(oxan-4-yl)amino]pyridin-3-yl}butanoic acid] | <5 | 316 | <5.0 |  |  |  | 
14 | CC(C)CN(c1ncc(C(C)CC(=O)O)cc1Nc1ccc(Cl)cn1)C1CCOCC1 (stereo not shown) [Example 35, 3-{5-[(5-chloropyridin-2-yl)amino]-6-[(2-methylpropyl)(oxan-4-yl)amino]pyridin-3-yl}butanoic acid] | <5 | 7.94 | <5.0 |  |  |  | 
15 | CC(C)CN(CC(C)C)c1ncc([C@H](C)CC(=O)O)cc1Nc1nc(C(F)(F)F)ns1 [Example 40, (3R)-3-{6-[bis(2-methylpropyl)amino]-5-{[3-(trifluoromethyl)-1,2,4-thiadiazol-5-yl]amino}pyridin-3-yl}butanoic acid] | <5 | 7.94 | <5.6 |  |  |  | 
16 | CC(C)CN(c1ncc([C@H](C)CC(=O)O)cc1Nc1ccc(C#N)cn1)C1CCOCC1 [Example 57, (3R)-3-{5-[(5-cyanopyridin-2-yl)amino]-6-[(2-methylpropyl)(oxan-4-yl)amino]pyridin-3-yl}butanoic acid] |  |  | <5.0 | 5010 | 3090 |  | 
17 | C[C@H](CC(=O)O)c1cnc(N(CCCCCN)C2CCOCC2)c(Nc2ccc(Cl)cn2)c1 [Example 83, (3R)-3-{6-[(5-aminopentyl)(oxan-4-yl)amino]-5-[(5-chloropyridin-2-yl)amino]pyridin-3-yl}butanoic acid] | <5 | 10 | <5.0 |  |  |  | 
18 | C[C@H](CC(=O)O)c1cnc(N(CCCCCNC(=O)OC2CC/C=C/CCC2)C2CCOCC2)c(Nc2ccc(Cl)cn2)c1 (stereo partly drawn) [Example 84, (3R)-3-{5-[(5-chloropyridin-2-yl)amino]-6-{[5-({[(4E)-cyclooct-4-en-1-yloxy]carbonyl}amino)pentyl](oxan-4-yl)amino}pyridin-3-yl}butanoic acid] | <5 | 10 | <5.0 |  |  |  | 
19 | NS(=O)(=O)NCCNc1nonc1C(=NO)Nc1ccc(F)c(Br)c1 [INCB204360] |  |  |  |  |  | without effect | significant dose-dependent inhibition of tumor growth

Source: US10787442B2, “Modulators of indoleamine 2,3-dioxygenase” (GLAXOSMITHKLINE INTELLECTUAL PROPERTY DEVELOPMENT LIMITED, priority 2016, dated 2020)
